Reference: the supplement of paper PMC10307832

How the values were obtained:
Test in all cases: relative viability (nuclei count vs DMSO), 5 days (fraction); higher = more cells survive
201T = tested on: 201T
Outline: (§1)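 Relative viability was taken as the ratio of nuclei in treated wells to nuclei in vehicle wells. Lung cancer cell lines in 1536-well plates received compounds by pin tool one day after seeding, either one drug alone or a fixed anchor-drug dose plus five library-drug doses (not always all listed) in √10 steps. Nuclei were counted on 4× images after 5 days of treatment, and values are medians of duplicate plates.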

BEN = tested on: BEN
Outline: as §1

CAL-12T = tested on: CAL-12T
Outline: as §1

HCC-827 = tested on: HCC-827
Outline: as §1

HOP-62 = tested on: HOP-62
Outline: as §1

LCLC-103H = tested on: LCLC-103H
Outline: as §1

LCLC-97TM1 = tested on: LCLC-97TM1
Outline: as §1

LXF-289 = tested on: LXF-289
Outline: as §1

NCI-H1355 = tested on: NCI-H1355
Outline: as §1

NCI-H1395 = tested on: NCI-H1395
Outline: as §1

NCI-H1437 = tested on: NCI-H1437
Outline: as §1

NCI-H1650 = tested on: NCI-H1650
Outline: as §1

NCI-H1793 = tested on: NCI-H1793
Outline: as §1

NCI-H2023 = tested on: NCI-H2023
Outline: as §1

NCI-H2087 = tested on: NCI-H2087
Outline: as §1

NCI-H2228 = tested on: NCI-H2228
Outline: as §1

NCI-H2405 = tested on: NCI-H2405
Outline: as §1

NCI-H3122 = tested on: NCI-H3122
Outline: as §1

NCI-H322M = tested on: NCI-H322M
Outline: as §1

NCI-H647 = tested on: NCI-H647
Outline: as §1

NCI-H727 = tested on: NCI-H727
Outline: as §1

RERF-LC-KJ = tested on: RERF-LC-KJ
Outline: as §1

SK-LU-1 = tested on: SK-LU-1
Outline: as §1

CC(C)Oc1cc(Nc2nc(N[C@@H](C)c3ccc(F)cn3)ncc2Cl)n[nH]1 [AZ23] + Cc1nc(Nc2ncc(C(=O)Nc3c(C)cccc3Cl)s2)cc(N2CCN(CCO)CC2)n1 [Dasatinib] (partner 0.075 µM)
relative viability (201T; first compound 0.01 µM): 0.506 | relative viability (201T; first compound 0.03162 µM): 0.614 | relative viability (201T; first compound 0.3162 µM): 0.569 | relative viability (BEN; first compound 0.01 µM): 0.309 | relative viability (BEN; first compound 0.03162 µM): 0.398 | relative viability (BEN; first compound 0.3162 µM): 0.304 | relative viability (CAL-12T; first compound 0.03162 µM): 0.363 | relative viability (CAL-12T; first compound 0.3162 µM): 0.221 | relative viability (HCC-827; first compound 0.01 µM): 0.301 | relative viability (HCC-827; first compound 0.03162 µM): 0.288 | relative viability (HCC-827; first compound 0.3162 µM): 0.282 | relative viability (HOP-62; first compound 0.01 µM): 0.702 | relative viability (HOP-62; first compound 0.03162 µM): 0.684 | relative viability (HOP-62; first compound 0.3162 µM): 0.631 | relative viability (LCLC-103H; first compound 0.01 µM): 0.443 | relative viability (LCLC-103H; first compound 0.03162 µM): 0.576 | relative viability (LCLC-103H; first compound 0.3162 µM): 0.499 | relative viability (LCLC-97TM1; first compound 0.01 µM): 0.924 | relative viability (LCLC-97TM1; first compound 0.03162 µM): 0.889 | relative viability (LCLC-97TM1; first compound 0.3162 µM): 0.829 | relative viability (LXF-289; first compound 0.01 µM): 0.205 | relative viability (LXF-289; first compound 0.03162 µM): 0.275 | relative viability (LXF-289; first compound 0.3162 µM): 0.189 | relative viability (NCI-H1355; first compound 0.01 µM): 0.793 | relative viability (NCI-H1355; first compound 0.03162 µM): 0.833 | relative viability (NCI-H1355; first compound 0.3162 µM): 0.633 | relative viability (NCI-H1395; first compound 0.03162 µM): 0.481 | relative viability (NCI-H1395; first compound 0.3162 µM): 0.359 | relative viability (NCI-H1437; first compound 0.01 µM): 0.354 | relative viability (NCI-H1437; first compound 0.03162 µM): 0.443 | relative viability (NCI-H1437; first compound 0.3162 µM): 0.418 | relative viability (NCI-H1650; first compound 0.03162 µM): 0.33 | relative viability (NCI-H1650; first compound 0.3162 µM): 0.299 | relative viability (NCI-H1793; first compound 0.01 µM): 0.375 | relative viability (NCI-H1793; first compound 0.03162 µM): 0.404 | relative viability (NCI-H1793; first compound 0.3162 µM): 0.383 | relative viability (NCI-H2023; first compound 0.03162 µM): 0.627 | relative viability (NCI-H2023; first compound 0.3162 µM): 0.57 | relative viability (NCI-H2087; first compound 0.01 µM): 1.29 | relative viability (NCI-H2087; first compound 0.03162 µM): 1.04 | relative viability (NCI-H2087; first compound 0.3162 µM): 0.751 | relative viability (NCI-H2228; first compound 0.01 µM): 0.571 | relative viability (NCI-H2228; first compound 0.03162 µM): 0.504 | relative viability (NCI-H2228; first compound 0.3162 µM): 0.445 | relative viability (NCI-H2405; first compound 0.01 µM): 0.225 | relative viability (NCI-H2405; first compound 0.03162 µM): 0.23 | relative viability (NCI-H2405; first compound 0.3162 µM): 0.215 | relative viability (NCI-H3122; first compound 0.01 µM): 0.946 | relative viability (NCI-H3122; first compound 0.03162 µM): 0.831 | relative viability (NCI-H3122; first compound 0.3162 µM): 0.856 | relative viability (NCI-H322M; first compound 0.03162 µM): 0.255 | relative viability (NCI-H322M; first compound 0.3162 µM): 0.256 | relative viability (NCI-H647; first compound 0.01 µM): 0.174 | relative viability (NCI-H647; first compound 0.03162 µM): 0.215 | relative viability (NCI-H647; first compound 0.3162 µM): 0.17 | relative viability (NCI-H727; first compound 0.01 µM): 0.393 | relative viability (NCI-H727; first compound 0.03162 µM): 0.402 | relative viability (NCI-H727; first compound 0.3162 µM): 0.362 | relative viability (RERF-LC-KJ; first compound 0.01 µM): 0.91 | relative viability (RERF-LC-KJ; first compound 0.03162 µM): 0.948 | relative viability (RERF-LC-KJ; first compound 0.3162 µM): 0.891 | relative viability (SK-LU-1; first compound 0.03162 µM): 0.193 | relative viability (SK-LU-1; first compound 0.3162 µM): 0.152
